Source: patent US20100016367A1, “BIS-PYRINIDIUM COMPOUNDS” (priority 2006, published 2010)
In brackets after ≈: the same amount, converted by molar mass.

Key:
Assay in all cases: In-vitro activity against dermatophytes, MIC
Assay type in all cases: cell-based
Epidermophyton floccosum = settings: 5 isolates
Trichophyton tonsurans = settings: 16 isolates
Microsporum gypseum = settings: 5 isolates
[1] = system: Trichophyton mentagrophytes; settings: 18 isolates
Trichophyton rubrum = settings: 20 isolates
Trichophyton soudanense = settings: 3 isolates
Trichophyton violaceum = settings: 3 isolates
Microsporum cookie = settings: 2 isolates
Microsporum canis = settings: 5 isolates

Compound: CCC(C)n1ncn(-c2ccc(N3CCN(c4ccc(OCC5COC(Cn6cncn6)(c6ccc(Cl)cc6Cl)O5)cc4)CC3)cc2)c1=O (stereo not drawn) [ITC, Itraconazole]
- MIC Range, Epidermophyton floccosum (Epidermophyton floccosum): 0.063 to 0.5 µg/mL
- MIC (Epidermophyton floccosum; Epidermophyton floccosum, read-out: MIC GM, Epidermophyton floccosum): 0.226 µg/mL (≈ 0.32 µM)
- MIC Range, Trichophyton tonsurans (Trichophyton tonsurans): 0.25 to 4 µg/mL
- MIC50 (Trichophyton tonsurans; Trichophyton tonsurans): 2 µg/mL (≈ 2.83 µM)
- MIC90 (Trichophyton tonsurans; Trichophyton tonsurans): 4 µg/mL (≈ 5.67 µM)
- MIC (Trichophyton tonsurans; Trichophyton tonsurans, read-out: MIC GM, Trichophyton tonsurans): 1.65 µg/mL (≈ 2.33 µM)
- MIC Range, Microsporum gypseum (Microsporum gypseum): 1 to 8 µg/mL
- MIC (Microsporum gypseum; Nannizzia gypsea, read-out: MIC GM, Microsporum gypseum): 3.68 µg/mL (≈ 5.22 µM)
- MIC Range, Trichophyton mentagrophytes [1]: 0.125 to 4 µg/mL
- MIC50 ([1]; Trichophyton mentagrophytes): 2 µg/mL (≈ 2.83 µM)
- MIC90 ([1]; Trichophyton mentagrophytes): 4 µg/mL (≈ 5.67 µM)
- MIC ([1]; Trichophyton mentagrophytes, read-out: MIC GM, Trichophyton mentagrophytes): 1.68 µg/mL (≈ 2.38 µM)
- MIC Range, Trichophyton rubrum (Trichophyton rubrum): 0.25 to 4 µg/mL
- MIC50 (Trichophyton rubrum; Trichophyton rubrum, MIC at which 50% of the isolates were inhibited): 2 µg/mL (≈ 2.83 µM)
- MIC90 (Trichophyton rubrum; Trichophyton rubrum, MIC at which 90% of the isolates were inhibited): 4 µg/mL (≈ 5.67 µM)
- MIC (Trichophyton rubrum; Trichophyton rubrum, read-out: MIC GM (geometric mean of the MICs), Trichophyton rubrum): 1.96 µg/mL (≈ 2.77 µM)
- MIC Range, Trichophyton soudanense (Trichophyton soudanense): 1 to 4 µg/mL
- MIC (Trichophyton soudanense; Trichophyton soudanense, read-out: MIC GM, Trichophyton soudanense): 3.42 µg/mL (≈ 4.85 µM)
- MIC Range, Trichophyton violaceum (Trichophyton violaceum): 2 to 8 µg/mL
- MIC (Trichophyton violaceum; Trichophyton violaceum, read-out: MIC GM, Trichophyton violaceum): 3.3 µg/mL (≈ 4.68 µM)
- MIC Range, Microsporum cookie (Microsporum cookie): 4 to 8 µg/mL
- MIC (Microsporum cookie; Microsporum, read-out: MIC GM, Microsporum cookie): 6 µg/mL (≈ 8.5 µM)
- MIC Range, Microsporum canis (Microsporum canis): 0.25 to 8 µg/mL
- MIC (Microsporum canis; Microsporum canis, read-out: MIC GM, Microsporum canis): 1.23 µg/mL (≈ 1.74 µM)
